Experimental data reported in US20090239841A1, “Diaryl Ureas as CB1 Antagonists” (priority 2004, published 2009).

Biological target: T1, hCB1 (Homo sapiens, UniProt P21554)
T1 construct: made in house; host or cells: Sf9 insect cells (baculovirus), P2 membranes
Assay: Agonist-induced GTP binding (GTPγ35S) assay at CB1, Example 8
Format: biochemical
Conditions: Table II; IC50 at CB1, GTP binding with 1 nM CP55,940; read-out: IC50
Method in brief: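 Antagonism read as inhibition of 1 nM CP55,940-stimulated GTPγ35S ([…]) binding, compounds at 10^−10 to 10^−5 M. Baculovirus-infected Sf9 membranes bearing hCB1 plus G-protein subunits, 60 min room-temperature incubation with 5 μM GDP. Filtration and scintillation counting; data as percent over basal.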

T1 sequence (P21554 whole entry): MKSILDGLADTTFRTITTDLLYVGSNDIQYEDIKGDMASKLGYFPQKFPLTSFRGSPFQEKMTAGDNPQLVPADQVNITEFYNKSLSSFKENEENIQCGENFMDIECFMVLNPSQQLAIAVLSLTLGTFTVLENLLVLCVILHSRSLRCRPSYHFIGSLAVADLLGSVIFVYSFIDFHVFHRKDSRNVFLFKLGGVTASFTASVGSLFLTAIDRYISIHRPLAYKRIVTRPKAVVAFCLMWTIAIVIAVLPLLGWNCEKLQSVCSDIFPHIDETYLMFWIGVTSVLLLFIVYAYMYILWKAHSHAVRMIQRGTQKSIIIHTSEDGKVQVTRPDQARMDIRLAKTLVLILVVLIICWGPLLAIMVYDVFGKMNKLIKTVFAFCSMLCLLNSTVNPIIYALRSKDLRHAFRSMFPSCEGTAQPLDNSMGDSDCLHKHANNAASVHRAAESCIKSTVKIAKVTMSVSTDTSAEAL

| IC50 | SMILES |
| --- | --- |
| < 2 µM | O=C(Nc1ccc(F)cc1)Nc1cccc(OC(F)F)c1 [Compound 220, N-[3-(difluoromethoxy)phenyl]-N′-(4-fluorophenyl)urea] |
| < 2 µM | O=C(Nc1ccc(F)cc1)Nc1ccc(OC(F)F)cc1 [Compound 221, N-[4-(difluoromethoxy)phenyl]-N′-(4-fluorophenyl)urea] |
| < 2 µM | CCOc1cccc(NC(=O)Nc2ccccc2)c1 [Compound 222, N-(3-ethoxyphenyl)-N′-phenylurea] |
| < 2 µM | CCOc1ccc(NC(=O)Nc2ccccc2)cc1 [Compound 223, N-(4-ethoxyphenyl)-N′-phenylurea] |
| < 2 µM | CC(C)Oc1ccc(NC(=O)Nc2ccccc2)cc1 [Compound 224, N-(4-isopropoxyphenyl)-N′-phenylurea] |
| < 2 µM | O=C(Nc1ccccc1)Nc1cccc(OC(F)F)c1 [Compound 225, N-[3-(difluoromethoxy)phenyl]-N′-phenylurea] |
| < 2 µM | Cc1ccccc1NC(=O)Nc1cccc(OC(F)F)c1 [Compound 226] |
| < 2 µM | CCc1ccccc1NC(=O)Nc1cccc(OC(F)F)c1 [Compound 227, N-[3-(difluoromethoxy)phenyl]-N′-(2-ethylphenyl)urea] |
| < 2 µM | CCc1ccc(NC(=O)Nc2ccc(OC)cc2)cc1 [Compound 228, N-(4-ethylphenyl)-N′-(4-methoxyphenyl)urea] |
| < 2 µM | COc1ccc(NC(=O)Nc2ccc(Cl)cc2)cc1 [Compound 229, N-(4-chlorophenyl)-N′-(4-methoxyphenyl)urea] |
| < 2 µM | CCOc1cccc(NC(=O)Nc2cccc(CC)c2)c1 [Compound 230, N-(3-ethoxyphenyl)-N′-(3-ethylphenyl)urea] |
| < 2 µM | CCOc1cccc(NC(=O)Nc2ccc(CC)cc2)c1 [Compound 231, N-(3-ethoxyphenyl)-N′-(4-ethylphenyl)urea] |
| < 2 µM | CCOc1cccc(NC(=O)Nc2cccc(Cl)c2)c1 [Compound 232, N-(3-chlorophenyl)-N′-(3-ethoxyphenyl)urea] |
| < 2 µM | CCOc1cccc(NC(=O)Nc2ccc(Cl)cc2)c1 [Compound 233, N-(4-chlorophenyl)-N′-(3-ethoxyphenyl)urea] |
| < 2 µM | CCOc1ccc(NC(=O)Nc2cccc(CC)c2)cc1 [Compound 234, N-(4-ethoxyphenyl)-N′-(3-ethylphenyl)urea] |
| < 2 µM | CCOc1ccc(NC(=O)Nc2ccc(CC)cc2)cc1 [Compound 235, N-(4-ethoxyphenyl)-N′-(4-ethylphenyl)urea] |
| < 2 µM | CCOc1ccc(NC(=O)Nc2cccc(Cl)c2)cc1 [Compound 236, N-(3-chlorophenyl)-N′-(4-ethoxyphenyl)urea] |
| < 2 µM | CCOc1ccc(NC(=O)Nc2ccc(Cl)cc2)cc1 [Compound 237, N-(4-chlorophenyl)-N′-(4-ethoxyphenyl)urea] |
| < 2 µM | CCc1ccc(NC(=O)Nc2cccc(COC)c2)cc1 [Compound 238, N-(4-ethylphenyl)-N′-[3-(methoxymethyl)phenyl]urea] |
| < 2 µM | CCc1cccc(NC(=O)Nc2ccc(COC)cc2)c1 [Compound 239, N-(3-ethylphenyl)-N′-[4-(methoxymethyl)phenyl]urea] |
| < 2 µM | CCc1ccc(NC(=O)Nc2ccc(COC)cc2)cc1 [Compound 240, N-(4-ethylphenyl)-N′-[4-(methoxymethyl)phenyl]urea] |

Second part, the compound before the results:

| SMILES | IC50 |
| --- | --- |
| CC(=O)c1ccc(NC(=O)Nc2ccc(C(C)C)cc2)cc1 [Compound 196, N-(4-acetylphenyl)-N′-(4-isopropylphenyl)urea] | < 2 µM |
| CCCc1ccc(NC(=O)Nc2ccc(C#N)cc2)cc1 [Compound 197, N-(4-cyanophenyl)-N′-(4-propylphenyl)urea] | < 2 µM |
| CCCc1ccc(NC(=O)Nc2cccc(C#N)c2)cc1 [Compound 198, N-(3-cyanophenyl)-N′-(4-propylphenyl)urea] | < 2 µM |
| CCCc1ccc(NC(=O)Nc2cccc(C(C)=O)c2)cc1 [Compound 199, N-(3-acetylphenyl)-N′-(4-propylphenyl)urea] | < 2 µM |
| CCCc1ccc(NC(=O)Nc2ccc(C(C)=O)cc2)cc1 [Compound 200, N-(4-acetylphenyl)-N′-(4-propylphenyl)urea] | < 2 µM |
| CC(=O)c1ccc(NC(=O)Nc2cccc(Br)c2)cc1 [Compound 201, N-(4-acetylpheny-)-N′-(3-bromophenyl)urea] | < 2 µM |
| CCOc1cccc(NC(=O)Nc2ccc(C)cc2)c1 [Compound 202, N-(3-ethoxyphenyl)-N′-(4-methylphenyl)urea] | < 2 µM |
| CCOc1cccc(NC(=O)Nc2cccc(F)c2)c1 [Compound 203, N-(3-ethoxyphenyl)-N′-(3-fluorophenyl)urea] | < 2 µM |
| CCOc1cccc(NC(=O)Nc2ccc(F)cc2)c1 [Compound 204, N-(3-ethoxyphenyl)-N′-(4-fluorophenyl)urea] | < 2 µM |
| CCOc1ccc(NC(=O)Nc2cccc(F)c2)cc1 [Compound 205, N-(4-ethoxyphenyl)-N′-(3-fluorophenyl)urea] | < 2 µM |
| CCOc1ccc(NC(=O)Nc2ccc(F)cc2)cc1 [Compound 206, N-(4-ethoxyphenyl)-N′-(4-fluorophenyl)urea] | < 2 µM |
| COCc1ccc(NC(=O)Nc2ccc(C)cc2)cc1 [Compound 207, N-[4-(methoxymethyl)phenyl]-N′-(4-methylphenyl)urea] | < 2 µM |
| COCc1ccc(NC(=O)Nc2cccc(F)c2)cc1 [Compound 208, N-(3-fluorophenyl)-N′-[4-(methoxymethyl)phenyl]urea] | < 2 µM |
| CCCOc1ccc(NC(=O)Nc2cccc(F)c2)cc1 [Compound 209, N-(3-fluorophenyl)-N′-(4-propoxyphenyl)urea] | < 2 µM |
| CCCOc1ccc(NC(=O)Nc2ccc(F)cc2)cc1 [Compound 210, N-(4-fluorophenyl)-N′-(4-propoxyphenyl)urea] | < 2 µM |
| CC(C)Oc1cccc(NC(=O)Nc2cccc(F)c2)c1 [Compound 211, N-(3-fluorophenyl)-N′-(3-isopropoxyphenyl)urea] | < 2 µM |
| CC(C)Oc1cccc(NC(=O)Nc2ccc(F)cc2)c1 [Compound 212, N-(4-fluorophenyl)-N′-(3-isopropoxyphenyl)urea] | < 2 µM |
| Cc1cccc(NC(=O)Nc2ccc(OC(C)C)cc2)c1 [Compound 213, N-(4-isopropoxyphenyl)-N′-(3-methylphenyl)urea] | < 2 µM |
| Cc1ccc(NC(=O)Nc2ccc(OC(C)C)cc2)cc1 [Compound 214, N-(4-isopropoxyphenyl)-N′-(4-methylphenyl)urea] | < 2 µM |
| CC(C)Oc1ccc(NC(=O)Nc2cccc(F)c2)cc1 [Compound 215, N-(3-fluorophenyl)-N′-(4-isopropoxyphenyl)urea] | < 2 µM |
| CC(C)Oc1ccc(NC(=O)Nc2ccc(F)cc2)cc1 [Compound 216, N-(4-fluorophenyl)-N′-(4-isopropoxyphenyl)urea] | < 2 µM |
| Cc1cccc(NC(=O)Nc2cccc(OC(F)F)c2)c1 [Compound 217, N-[3-(difluoromethoxy)phenyl]-N′-(3-methylphenyl)urea] | < 2 µM |
| Cc1ccc(NC(=O)Nc2cccc(OC(F)F)c2)cc1 [Compound 218, N-[3-(difluoromethoxy)phenyl]-N′-(4-methylphenyl)urea] | < 2 µM |
| O=C(Nc1cccc(F)c1)Nc1cccc(OC(F)F)c1 [Compound 219, N-[3-(difluoromethoxy)phenyl]-N′-(3-fluorophenyl)urea] | < 2 µM |
